These results are taken from ChEMBL document CHEMBL1154700, “3D-QSAR studies on unsaturated 4-azasteroids as human 5alpha-reductase inhibitors: a self organizing molecular field analysis approach” (Eur J Med Chem, 2010).

The species entered for this assay is Homo sapiens. As to the kind of experiment: Inhibition of human 5 alpha reductase assessed as -log of ratio of IC50 of drug to the IC50 of reference compound.
`COC(=O)[C@@H](C)[C@H]1CC[C@H]2[C@@H]3CC[C@H]4N(C)C(=O)C=C[C@]4(C)[C@H]3CC[C@]12C`: the -log(RatioIC50) was -2.18.
Under `COC(=O)[C@H]1CC[C@H]2[C@@H]3CC[C@H]4NC(=O)C=C[C@]4(C)[C@H]3CC[C@]12C` stands -1.56; under `CC(C)(C)NC(=O)[C@H]1CC[C@H]2[C@@H]3CC[C@H]4NC(=O)C=C[C@]4(C)[C@H]3CC[C@]12C`, 0.26.
As for `CCN(CC)C(=O)[C@H]1CC[C@H]2[C@@H]3CC=C4N(C)C(=O)CC[C@]4(C)[C@H]3CC[C@]12C`, the -log(RatioIC50) is -0.653.
For the compound `C[C@]12C=CC(=O)N[C@@H]1CC[C@@H]1[C@@H]2CC[C@@]2(C)[C@H]1CC[C@@]21CCCO1`, the -log(RatioIC50) is -3.
Next, `CC(C)N(C(=O)[C@H]1CC[C@H]2[C@@H]3CC=C4N(C)C(=O)CC[C@]4(C)[C@H]3CC[C@]12C)C(C)C`: -0.204; `CC(C)N(C(=O)[C@H]1CC[C@H]2[C@@H]3CC=C4NC(=O)CC[C@]4(C)[C@H]3CC[C@]12C)C(C)C`: -0.602; `CN1C(=O)C=C[C@]2(C)[C@H]3CC[C@]4(C)[C@@H](C(=O)NC(C)(C)C)CC[C@H]4[C@@H]3CC[C@@H]12`: -0.778.
Next, `CC(C)N(C(=O)[C@H]1CC[C@H]2[C@@H]3CC[C@H]4N(C)C(=O)C=C[C@]4(C)[C@H]3CC[C@]12C)C(C)C`: -1; `CN1C(=O)C=C[C@]2(C)[C@H]3CC[C@]4(C)[C@@H](C(=O)c5ccc[nH]5)CC[C@H]4[C@@H]3CC[C@@H]12`: -1.52.
In the case of `CC(C)N(C(=O)[C@H]1CC[C@H]2[C@@H]3CC=C4N(C)C(=O)C=C[C@]4(C)[C@H]3CC[C@]12C)C(C)C`, the -log(RatioIC50) is -1.43.
For the compound `CC(C)CC(=O)[C@H]1CC[C@H]2[C@@H]3CC[C@H]4N(C)C(=O)C=C[C@]4(C)[C@H]3CC[C@]12C`, the -log(RatioIC50) is -1.48.
`C[C@]12C=CC(=O)N[C@@H]1CC[C@@H]1[C@@H]2CC[C@]2(C)[C@@H](C(=O)c3ccc[nH]3)CC[C@@H]12`: the -log(RatioIC50) is -1.
For `CCC(C)C(=O)[C@H]1CC[C@H]2[C@@H]3CC[C@H]4N(C)C(=O)C=C[C@]4(C)[C@H]3CC[C@]12C` (stereo partly specified), the -log(RatioIC50) is -1.7.
`CCC(C)C(=O)[C@H]1CC[C@H]2[C@@H]3CC[C@H]4NC(=O)C=C[C@]4(C)[C@H]3CC[C@]12C` (stereo partly specified): the -log(RatioIC50) is -0.881.
Turning to `CCNC(=O)[C@H]1CC[C@H]2[C@@H]3CC[C@H]4NC(=O)C=C[C@]4(C)[C@H]3CC[C@]12C`, the -log(RatioIC50) is -1.18.
Next, `COC(=O)[C@@H](C)[C@H]1CC[C@H]2[C@@H]3CC[C@H]4NC(=O)C=C[C@]4(C)[C@H]3CC[C@]12C`: -1.48.
Next, `CCN(CC)C(=O)[C@H]1CC[C@H]2[C@@H]3CC[C@H]4NC(=O)C=C[C@]4(C)[C@H]3CC[C@]12C`: -0.785; `C[C@]12C=CC(=O)N[C@@H]1CC[C@@H]1[C@@H]2CC[C@]2(C)[C@@H](C(N)=O)CC[C@@H]12`: -1.92.
Next, `CCNC(=O)[C@H]1CC[C@H]2[C@@H]3CC[C@H]4N(C)C(=O)C=C[C@]4(C)[C@H]3CC[C@]12C`: -2.18; `CC(C)CC(=O)[C@H]1CC[C@H]2[C@@H]3CC[C@H]4NC(=O)C=C[C@]4(C)[C@H]3CC[C@]12C`: -0.255.
`CCN(CC)C(=O)[C@H]1CC[C@H]2[C@@H]3CC[C@H]4N(C)C(=O)C=C[C@]4(C)[C@H]3CC[C@]12C`: the -log(RatioIC50) is -1.34.
Under `CC(C)N(C(=O)[C@H]1CC[C@H]2[C@@H]3CC[C@H]4NC(=O)C=C[C@]4(C)[C@H]3CC[C@]12C)C(C)C` stands -0.204; under `CN1C(=O)C=C[C@]2(C)[C@H]3CC[C@]4(C)[C@@H](C(=O)NC(C)(C)CC(C)(C)C)CC[C@H]4[C@@H]3CC[C@@H]12`, -0.477; under `CNC(=O)[C@H]1CC[C@H]2[C@@H]3CC=C4N(C)C(=O)CC[C@]4(C)[C@H]3CC[C@]12C`, -1.57.
Next, `CCOC(=O)/C=C1\CC[C@H]2[C@@H]3CC=C4N(C)C(=O)CC[C@]4(C)[C@H]3CC[C@]12C`: -2; `C[C@]12C=CC(=O)N[C@@H]1CC[C@@H]1[C@@H]2CC[C@]2(C)[C@@H](C(=O)Sc3ccccn3)CC[C@@H]12`: 0.
For the compound `CC(C)(C)CC(C)(C)NC(=O)[C@H]1CC[C@H]2[C@@H]3CC[C@H]4NC(=O)C=C[C@]4(C)[C@H]3CC[C@]12C`, the -log(RatioIC50) is -0.079.
Next, `CN1C(=O)C=C[C@]2(C)[C@H]3CC[C@@]4(C)[C@@H](CC[C@@]45CCCO5)[C@@H]3CC[C@@H]12`: -3.1.
Next, `C[C@]12C=CC(=O)N[C@@H]1CC[C@@H]1[C@@H]2CC[C@]2(C)[C@@H](O)CC[C@@H]12`: -2; `CCN(CC)C(=O)/C=C/[C@H]1CC[C@H]2[C@@H]3CC[C@H]4N(C)C(=O)CC[C@]4(C)[C@H]3CC[C@]12C`: -0.301.
